Results: US9456992B2 (XSPRAY MICROPARTICLES AB, priority 2012, dated 2016)
Counter-ions that a name gives are not always drawn.

Experiment: Dissolution measurement assay (apparent solubility, non-sink) in FeSSIF solution (pH 5)
Type: physicochemical
Method: The medium was prepared in accordance with the manufacturer's instructions. The amount of powder added depends on the wished “total PKI concentration”. […] For other experiments, the drug load was first estimated by HPLC and the amount of powder to obtain the drug concentration was calculated.
Typically, the powder was added in a 8 mL glass bottle and 7 mL of solution was added (typically FaSSIF, FeSSIF or SGF). The glass bottle was put on a shaker (approximately 1 rotation per minute) for dissolution. Samples of 500 μl where taken after different times, and subsequently centrifuged at approximately 15000 g for 3 minutes. The resulting supernatant was then analyzed by HPLC (C18 column Eclipse, 4.6 mm×15 cm, 1 mL/min, detection at 254-400 nM. Generally samples were taken after 5, 30 and 90 min and eventually 150 min.
The experiments were carried out by measuring concentration of solubilized PKI (mg/L) after 5, 30 and 90 minutes dissolution in a solution at about pH 6.5, namely FaSSIF (Fasted State Simulated Intestinal Fluid). Further, experiments were carried out in an alternative solution at about pH 5, namely FeSSIF (Fed State Simulated Intestinal Fluid). Samples of the solution were taken at various time intervals and the amount of protein kinase inhibitor was measured by the dissolution measurement assay described above.
The experiments were carried out by measuring concentration of PKI (mg/L) after 5, 30 and 90 minutes dissolution in a solution at about pH 6.5, namely FaSSIF (Fasted State Simulated Intestinal Fluid). Further, experiments were carried out in an alternative solution at about pH 5, namely FeSSIF (Fed State Simulated Intestinal Fluid). Samples of the solution were taken at various time intervals and the amount of PKI was measured by the dissolution measurement assay described above.

| % solubilized 30 min. (nilotinib HCl, after 30 minutes dissolution) [%] | % solubilized 30 min. (erlotinib HCl, 30 min dissolution) [%] | AUC/ 90 min. (erlotinib HCl, AUC during 90 min dissolution) [Mg/min/L] | Compound |
| --- | --- | --- | --- |
| 0.18 |  |  | Cc1cn(-c2cc(NC(=O)c3ccc(C)c(Nc4nccc(-c5cccnc5)n4)c3)cc(C(F)(F)F)c2)cn1 [Exp 41, Nilotinib HCl] |
|  | 19.0 | 16303 | C#Cc1cccc(Nc2ncnc3cc(OCCOC)c(OCCOC)cc23)c1 [Exp 69, Erlotinib HCl] |
